The source of these data is ChEMBL document CHEMBL1135713, “Antitumor benzothiazoles. 16. Synthesis and pharmaceutical properties of antitumor 2-(4-aminophenyl)benzothiazole amino acid prodrugs” (J Med Chem, 2002).

A short description of data set [1]: Delta logP. The data set is classed as ADME. Conditions: octanol/water.
A short description of data set [2]: log P value in cyclohexane:buffer at pH 7.4. The data set is classed as physicochemical.
A short description of data set [3]: The compound was tested for its solubility at a pH of 10.5. Format: ADME. Conditions: pH 10.5; read-out: S.
A short description of data set [4]: The compound was tested for its solubility at a pH of 9.6. The data set is classed as ADME. Conditions: pH 9.6; read-out: S.
A short description of data set [5]: The compound was tested for its solubility at a pH of 8.5. Conditions: pH 8.5; read-out: S. Format: ADME.
The nature of data set [6]: The compound was tested for its solubility at a pH of 5.0. The data set is classed as ADME. Particulars: pH 5; read-out: S.
Data set [7] in a line: The compound was tested for its solubility at a pH of 6.3. Particulars: pH 6.3; read-out: S. Format: ADME.
A short description of data set [8]: The compound was tested for its solubility at a pH of 7.4. Format: ADME. Particulars: pH 7.4; read-out: S.

For `Cc1cc(-c2nc3ccccc3s2)ccc1N`, in data set [1], the “delta logP” value is 1.45. For the same molecule, the logD in data set [2] was 2.51.

Turning to `Cc1cc(-c2nc3cc(F)ccc3s2)ccc1NC(=O)[C@@H](N)CCCCN.Cl.Cl`, the solubility in data set [3] was 10 µg/mL; in data set [4] it was 20 µg/mL; in data set [5] it was 75 µg/mL; in data set [6] it was over 53200 µg/mL; in data set [7], 7000 µg/mL; in data set [8], 390 µg/mL.
